Measurements published in the supplement of paper PMC10331698.
± gives the standard deviation of the averaged measurements.

Experiments:
Assay in all cases: level (log10 ratio to DMSO vehicle control); higher = higher biomarker level / cell amount than vehicle control
Conditions in all cases: in DMSO
[1] = compound: O=S(=O)(F)C(F)(F)C(F)(F)C(F)(F)C(F)(F)C(F)(F)C(F)(F)C(F)(F)C(F)(F)F [Perfluorooctanesulfonyl fluoride]
Protocol: (§1)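 BioMAP Diversity Plus panel of 12 human primary cell co-culture systems (3C, 4H, LPS, SAg, BT, BF4T, BE3C, CASM3C, HDF3CGF, KF3CT, MyoF, Mphg). Compounds were added 1 h before stimulation and left for 24 h (MyoF 48 h; BT 72 h for soluble read-outs or 6 d for IgG). Biomarkers were read by ELISA, cytotoxicity by SRB, PBMC viability and proliferation by Alamar Blue. Each well value was divided by the mean of 8 DMSO control wells on the same plate and log10 transformed; duplicate blinded samples were tested at 4 concentrations.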

Octafluoroadipamide = compound: NC(=O)C(F)(F)C(F)(F)C(F)(F)C(F)(F)C(N)=O [Octafluoroadipamide]
Protocol: as §1

Hexafluoroamylene glycol = compound: OCC(F)(F)C(F)(F)C(F)(F)CO [Hexafluoroamylene glycol]
Protocol: as §1

Nonafluoropentanamide = compound: NC(=O)C(F)(F)C(F)(F)C(F)(F)C(F)(F)F [Nonafluoropentanamide]
Protocol: as §1

[2] = compound: FC(F)(F)C(F)(F)C(F)(F)C(F)(F)C(F)(F)C(F)(F)C(F)(F)I [1-Iodopentadecafluoroheptane]
Protocol: as §1

[3] = compound: COC(=O)C(F)(F)C(F)(F)OC(F)(C(F)(F)F)C(F)(F)OC(F)=C(F)F [Methyl perfluoro(3-(1-ethenyloxypropan-2-yloxy)propanoate)]
Protocol: as §1

[4] = compound: O=C(O)C=CC(F)(C(F)(F)F)C(F)(F)F [3-(Perfluoroisopropyl)-2-propenoic acid]
Protocol: as §1

Test System	level (log10) ([1]; 6700 nM)	level (log10) ([1]; 20000 nM)	level (log10) ([1]; 60000 nM)	level (log10) (Octafluoroadipamide; 6700 nM)	level (log10) (Octafluoroadipamide; 20000 nM)	level (log10) (Octafluoroadipamide; 60000 nM)	level (log10) (Hexafluoroamylene glycol; 6700 nM)	level (log10) (Hexafluoroamylene glycol; 20000 nM)	level (log10) (Hexafluoroamylene glycol; 60000 nM)	level (log10) (Nonafluoropentanamide; 6700 nM)	level (log10) (Nonafluoropentanamide; 20000 nM)	level (log10) (Nonafluoropentanamide; 60000 nM)	level (log10) ([2]; 6700 nM)	level (log10) ([2]; 20000 nM)	level (log10) ([3]; 6700 nM)	level (log10) ([3]; 20000 nM)	level (log10) ([4]; 6700 nM)	level (log10) ([4]; 20000 nM)	level (log10) ([4]; 60000 nM)
HDF3CGF:Collagen III	0.055 ± 0.016	0.039 ± 0.025	-0.03 ± 0.055	0.0035 ± 0.044	0.0225 ± 0.00071	0.023 ± 0.052	0.009 ± 0.051	0.0115 ± 0.064	0.0515 ± 0.026	0.033 ± 0.0014	0.026 ± 0.0014	0.049 ± 0.0099	-0.024 ± 0.014	-0.023 ± 0.028	-0.059 ± 0.072	-0.079 ± 0.016	-0.0125 ± 0.00071	0.009 ± 0.0014	0.033 ± 0.038
CASM3C:CD142/Tissue Factor	0.018 ± 0.0014	0.0095 ± 0.0035	0.0025 ± 0.005	0.0005 ± 0.028	-0.006 ± 0.025	-0.034 ± 0.014	-0.0025 ± 0.016	-0.0125 ± 0.0035	0.008 ± 0.024	0.0195 ± 0.13	0.0125 ± 0.026	-0.031 ± 0.028	-0.0185 ± 0.016	-0.043 ± 0.024	0.0075 ± 0.022	0.0285 ± 0.012	-0.037 ± 0.028	-0.0315 ± 0.053	-0.01 ± 0.067
CASM3C:PAI-I	0.005 ± 0.0071	-0.005 ± 0.0028	0.0045 ± 0.0035	0.0005 ± 0.005	-0.0085 ± 0.012	0.0045 ± 0.0092	-0.0035 ± 0.015	0.017 ± 0.031	0.006 ± 0.0085	-0.008 ± 0.024	-0.0065 ± 0.0064	0.0105 ± 0.0064	-0.013 ± 0.011	0.0075 ± 0.011	-0.0015 ± 0.0035	-0.0005 ± 0.012	0.006 ± 0.0028	0 ± 0.0057	0.012 ± 0.0057
MyoF:SRB	-0.0155 ± 0.012	-0.0245 ± 0.025	0.004 ± 0.0085	-0.004 ± 0.0028	-0.01 ± 0.0042	-0.0055 ± 0.0078	0.002 ± 0.0028	-0.0045 ± 0.0035	-0.002 ± 0.0057	-0.003 ± 0.0085	0.009 ± 0.0085	0.005 ± 0.016	-0.0135 ± 0.00071	-0.131 ± 0.012	0.004 ± 0.0042	0.018 ± 0.0099	-0.005 ± 0.0014	-0.0085 ± 0.0035	0 ± 0.018
lMphg:CCL3/MIP-1alpha	-0.0035 ± 0.053	-0.004 ± 0.021	-0.001 ± 0.017	0.0425 ± 0.032	0.019 ± 0.047	0.0295 ± 0.013	0.03 ± 0.072	-0.0125 ± 0.023	0.023 ± 0.034	0.0025 ± 0.057	-0.0015 ± 0.06	0 ± 0.045	0.0225 ± 0.023	0.0175 ± 0.049	0.032 ± 0.031	0.0655 ± 0.026	-0.031 ± 0.018	-0.0285 ± 0.016	-0.0125 ± 0.016
MyoF:CXCL8/IL-8	0.0095 ± 0.0021	0.023 ± 0.0042	0.0325 ± 0.032	0.007 ± 0.028	-0.006 ± 0.011	0.0075 ± 0.016	-0.0385 ± 0.028	-0.0325 ± 0.018	0.001 ± 0.075	-0.0255 ± 0.00071	-0.01 ± 0.024	0.0125 ± 0.015	0.028 ± 0.018	0.034 ± 0.038	0.083 ± 0.04	0.154 ± 0.034	-0.0445 ± 0.0064	-0.032 ± 0.0028	-0.0025 ± 0.019
3C:CD142/Tissue Factor	-0.0085 ± 0.005	-0.0175 ± 0.0021	-0.0105 ± 0.0021	0.007 ± 0.082	0.0255 ± 0.073	0.0795 ± 0.046	0.014 ± 0.1	0.013 ± 0.062	0.009 ± 0.1	-0.049 ± 0.041	-0.0275 ± 0.04	-0.067 ± 0.044	-0.0085 ± 0.015	-0.052 ± 0.076	0.0415 ± 0.064	0.0255 ± 0.0064	-0.018 ± 0.065	-0.036 ± 0.048	0.003 ± 0.061
KF3CT:PAI-I	-0.0005 ± 0.018	-0.008 ± 0.0057	0.0025 ± 0.012	-0.0155 ± 0.012	-0.0145 ± 0.025	0.004 ± 0.02	0.002 ± 0.016	-0.0055 ± 0.005	0.013	-0.042 ± 0.0099	-0.0205 ± 0.036	-0.0375 ± 0.00071	-0.0055 ± 0.04	-0.0275 ± 0.028	0.0045 ± 0.019	-0.0045 ± 0.012	0.0045 ± 0.0092	0.023 ± 0.0085	0.0165 ± 0.0021
MyoF:PAI-I	-0.0045 ± 0.0035	-0.0015 ± 0.00071	0.006 ± 0.0099	-0.008 ± 0.027	0.0045 ± 0.0035	0.009 ± 0.0042	-0.0045 ± 0.0064	-0.0105 ± 0.00071	0.01 ± 0.011	0.006 ± 0.011	0.012 ± 0.0057	0.021 ± 0.0014	-0.013 ± 0.016	-0.075	0.0105 ± 0.0035	0.0315 ± 0.0078	0.0125 ± 0.0078	0.007 ± 0.0099	0.009 ± 0.0014
KF3CT:CD54/ICAM-1	0.0055 ± 0.029	0.003 ± 0.0028	0.009 ± 0.0028	-0.0015 ± 0.0021	-0.003	0.0115 ± 0.022	0.0035 ± 0.021	-0.0155 ± 0.012	-0.013 ± 0.0099	-0.018 ± 0.0071	-0.016 ± 0.0071	-0.025 ± 0.0028	-0.015 ± 0.0085	-0.018 ± 0.021	-0.025	-0.008 ± 0.0071	0.0075 ± 0.013	0.011 ± 0.018	-0.0025 ± 0.029
HDF3CGF:CXCL9/MIG	-0.01 ± 0.0028	0.0125 ± 0.0092	-0.02 ± 0.017	-0.006 ± 0.0014	-0.0055 ± 0.015	0.016 ± 0.025	-0.001 ± 0.038	0.0055 ± 0.035	-0.035 ± 0.083	0.017 ± 0.0028	-0.0025 ± 0.0064	0.005 ± 0.018	-0.016 ± 0.0042	0.0015 ± 0.0064	0.01 ± 0.0014	-0.063 ± 0.014	0.017 ± 0.0071	0.02 ± 0.011	0.011 ± 0.023
3C:CD62E/E-Selectin	-0.006 ± 0.0057	-0.01	-0.006 ± 0.024	-0.0175 ± 0.011	-0.0115 ± 0.0064	0.012 ± 0.016	-0.0185 ± 0.037	-0.021 ± 0.025	-0.012 ± 0.0014	-0.014 ± 0.025	-0.017 ± 0.031	0.0085 ± 0.011	-0.0085 ± 0.00071	-0.003 ± 0.011	-0.034 ± 0.011	-0.031 ± 0.013	-0.009 ± 0.013	-0.031 ± 0.0085	-0.0155 ± 0.013
HDF3CGF:CD54/ICAM-1	-0.013 ± 0.018	-0.011 ± 0.0014	-0.006 ± 0.013	0.011 ± 0.027	0.043 ± 0.0099	0.055 ± 0.073	-0.0065 ± 0.016	0.0015 ± 0.012	0.009	-0.0065 ± 0.011	-0.01 ± 0.0085	0 ± 0.0042	-0.0025 ± 0.0078	-0.0075 ± 0.0078	-0.0155 ± 0.0092	-0.029 ± 0.025	-0.0105 ± 0.005	-0.0055 ± 0.015	-0.024 ± 0.016
HDF3CGF:SRB	0.017 ± 0.0014	0.0365 ± 0.025	0.043 ± 0.034	-0.0135 ± 0.047	-0.0225 ± 0.066	-0.0195 ± 0.046	0.0095 ± 0.052	0.0215 ± 0.06	0.02 ± 0.061	0.024 ± 0.0042	0.022 ± 0.011	0.0245 ± 0.005	0.013 ± 0.021	-0.002 ± 0.016	0.0845 ± 0.0035	0.081 ± 0.0042	-0.014 ± 0.055	0.0205 ± 0.011	-0.0055 ± 0.022
MyoF:TIMP-1	0.006 ± 0.0099	0.0035 ± 0.016	0.004 ± 0.0014	-0.0325 ± 0.023	0.004 ± 0.033	0.021 ± 0.021	-0.041 ± 0.05	-0.0385 ± 0.06	-0.039 ± 0.065	-0.019 ± 0.0057	0.01 ± 0.035	0.001 ± 0.0085	0.049 ± 0.0057	-0.0605 ± 0.0092	0.018 ± 0.011	0.0085 ± 0.039	-0.0285 ± 0.00071	-0.0085 ± 0.013	0.0535 ± 0.037
